Calls of active or inactive are those of the source. The calls are words filed in the database; no cut-off is given here.
Assays:
[1] = target: Muscarinic acetylcholine receptor M2 (Homo sapiens) (UniProt P08172); settings: 10 uM
in vivo [2] = settings: Sprague-Dawley, rat, iv, 3 umol/kg
[3] = target: Prostaglandin G/H synthase 1 (Homo sapiens) (UniProt P23219); settings: 10 uM
Rattus norvegicus [4] = species: Rattus norvegicus; settings: Brain, Brain membranes, 10 uM
in vivo [5] = settings: Sprague-Dawley, rat, po, 10 umol/kg
in vivo [6] = settings: Sprague-Dawley, rat, iv, 3 umol/kg; remark: listed apart in the source
in vivo [7] = settings: Sprague-Dawley, rat, iv, 3 umol/kg; remark: listed apart in the source
[8] = target: Beta-1 adrenergic receptor (Homo sapiens) (UniProt P08588); settings: 10 uM
[9] = target: Potassium voltage-gated channel subfamily KQT member 2 (Homo sapiens) (UniProt O43526); settings: 10 uM
[10] = target: Transient receptor potential cation channel subfamily A member 1 (Homo sapiens) (UniProt O75762); settings: 11 uM
[11] = target: D(2) dopamine receptor (Homo sapiens) (UniProt P14416); settings: 10 uM
in vivo [12] = settings: Sprague-Dawley, rat, po, 10 umol/kg; remark: listed apart in the source
[13] = target: Insulin receptor (Homo sapiens) (UniProt P06213); settings: 10 uM
[14] = target: Acetylcholinesterase (Homo sapiens) (UniProt P22303); settings: 10 uM
in vivo [15] = settings: Sprague-Dawley, rat, po, 10 umol/kg; remark: listed apart in the source
Rattus norvegicus [16] = species: Rattus norvegicus; assay: animal or person; settings: Sprague-Dawley, po, read-out: INH
Rattus norvegicus [17] = species: Rattus norvegicus; assay: animal or person; settings: Sprague-Dawley, po, read-out: INH; remark: listed apart in the source
[18] = target: Alpha-2A adrenergic receptor (Homo sapiens) (UniProt P08913); settings: 10 uM
Rattus norvegicus [19] = species: Rattus norvegicus; assay: animal or person; settings: Sprague-Dawley, po, read-out: INH; remark: listed apart in the source
Rattus norvegicus [20] = species: Rattus norvegicus; assay: animal or person; settings: Sprague-Dawley, po, read-out: INH; remark: listed apart in the source
[21] = target: Mu-type opioid receptor (Homo sapiens) (UniProt P35372); settings: 10 uM
Rattus norvegicus [22] = species: Rattus norvegicus; assay: animal or person; settings: Sprague-Dawley, po, read-out: INH; remark: listed apart in the source
[23] = target: Potassium voltage-gated channel subfamily A member 5 (Homo sapiens) (UniProt P22460); settings: 10 uM
[24] = target: Glycine receptor subunit alpha-1 (Homo sapiens) (UniProt P23415); settings: 33 uM
[25] = target: Sodium-dependent noradrenaline transporter (Homo sapiens) (UniProt P23975); settings: 10 uM
[26] = target: Alpha-1D adrenergic receptor (Homo sapiens) (UniProt P25100); settings: 10 uM
in vitro [27] = settings: rat, microsomes, CLH
cells = settings: Homo sapiens, HEK293
in vivo [28] = settings: Sprague-Dawley, rat, po, 10 umol/kg; remark: listed apart in the source
[29] = target: Histamine H1 receptor (Homo sapiens) (UniProt P35367); settings: 10 uM
[30] = target: Voltage-dependent T-type calcium channel subunit alpha-1H (Homo sapiens) (UniProt O95180); settings: 31.6 uM
in vivo [31] = settings: Sprague-Dawley, rat, po, 10 umol/kg; remark: listed apart in the source
Rattus norvegicus [32] = species: Rattus norvegicus; assay: animal or person; settings: Sprague-Dawley, po, read-out: INH; remark: listed apart in the source
in vivo [33] = settings: Sprague-Dawley, rat, brain/plasma
[34] = target: Nitric oxide synthase 3 (Homo sapiens) (UniProt P29474); settings: 10 uM
in vitro [35] = settings: human, microsomes, CLH
[36] = target: 5-hydroxytryptamine receptor 2A (Homo sapiens) (UniProt P28223); settings: 10 uM
in vivo [37] = settings: Sprague-Dawley, rat, iv, 3 umol/kg; remark: listed apart in the source
[38] = target: Estrogen receptor (Homo sapiens) (UniProt P03372); settings: 10 uM
in vitro [39] = settings: Sprague-Dawley, rat, plasma
Rattus norvegicus [40] = species: Rattus norvegicus; assay: animal or person; settings: Sprague-Dawley, po, read-out: INH; remark: listed apart in the source
Rattus norvegicus [41] = species: Rattus norvegicus; assay: animal or person; settings: Sprague-Dawley, po, read-out: INH; remark: listed apart in the source

Alpha-2A adrenergic receptor (Homo sapiens), sequence (P08913 whole entry): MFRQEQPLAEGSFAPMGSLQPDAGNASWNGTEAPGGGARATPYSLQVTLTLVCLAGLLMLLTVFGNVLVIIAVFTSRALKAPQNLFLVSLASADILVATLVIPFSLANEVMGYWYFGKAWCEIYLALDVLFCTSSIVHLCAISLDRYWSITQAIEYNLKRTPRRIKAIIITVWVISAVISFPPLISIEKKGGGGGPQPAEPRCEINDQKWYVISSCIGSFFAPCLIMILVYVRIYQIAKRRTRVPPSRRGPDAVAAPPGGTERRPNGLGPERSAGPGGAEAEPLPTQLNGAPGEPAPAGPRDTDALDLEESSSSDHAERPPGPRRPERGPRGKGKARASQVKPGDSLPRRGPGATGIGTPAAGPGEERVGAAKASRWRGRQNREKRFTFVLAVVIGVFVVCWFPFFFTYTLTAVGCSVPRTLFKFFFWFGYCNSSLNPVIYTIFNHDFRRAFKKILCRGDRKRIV
Estrogen receptor (Homo sapiens), sequence (P03372 whole entry): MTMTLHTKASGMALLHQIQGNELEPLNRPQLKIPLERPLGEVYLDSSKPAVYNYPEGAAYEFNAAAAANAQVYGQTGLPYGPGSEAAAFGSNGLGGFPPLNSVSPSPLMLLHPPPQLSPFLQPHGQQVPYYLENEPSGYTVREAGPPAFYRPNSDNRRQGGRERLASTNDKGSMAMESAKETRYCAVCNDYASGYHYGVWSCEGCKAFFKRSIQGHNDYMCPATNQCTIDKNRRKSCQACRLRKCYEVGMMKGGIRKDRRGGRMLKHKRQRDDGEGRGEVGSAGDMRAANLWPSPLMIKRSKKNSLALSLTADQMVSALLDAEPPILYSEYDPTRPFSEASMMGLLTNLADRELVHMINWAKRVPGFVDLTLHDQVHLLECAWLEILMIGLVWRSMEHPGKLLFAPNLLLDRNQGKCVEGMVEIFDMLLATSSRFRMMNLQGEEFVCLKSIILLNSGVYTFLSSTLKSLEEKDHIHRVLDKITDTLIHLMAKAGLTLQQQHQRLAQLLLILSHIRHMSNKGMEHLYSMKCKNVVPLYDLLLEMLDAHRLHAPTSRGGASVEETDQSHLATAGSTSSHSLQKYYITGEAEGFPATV
D(2) dopamine receptor (Homo sapiens), sequence (P14416 whole entry): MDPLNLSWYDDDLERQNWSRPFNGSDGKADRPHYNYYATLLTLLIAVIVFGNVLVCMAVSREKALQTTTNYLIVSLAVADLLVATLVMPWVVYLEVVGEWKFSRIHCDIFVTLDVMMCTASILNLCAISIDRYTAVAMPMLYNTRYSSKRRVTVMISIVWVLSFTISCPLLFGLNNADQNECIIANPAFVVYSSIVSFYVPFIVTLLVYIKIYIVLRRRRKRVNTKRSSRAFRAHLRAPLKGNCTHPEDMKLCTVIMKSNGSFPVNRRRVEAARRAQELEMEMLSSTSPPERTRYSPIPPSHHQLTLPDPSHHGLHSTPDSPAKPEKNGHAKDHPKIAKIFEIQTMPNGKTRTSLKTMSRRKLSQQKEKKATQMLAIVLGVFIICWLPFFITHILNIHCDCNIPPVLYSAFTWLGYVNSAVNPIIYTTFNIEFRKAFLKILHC
Insulin receptor (Homo sapiens), sequence (P06213 28-758 limits assumed): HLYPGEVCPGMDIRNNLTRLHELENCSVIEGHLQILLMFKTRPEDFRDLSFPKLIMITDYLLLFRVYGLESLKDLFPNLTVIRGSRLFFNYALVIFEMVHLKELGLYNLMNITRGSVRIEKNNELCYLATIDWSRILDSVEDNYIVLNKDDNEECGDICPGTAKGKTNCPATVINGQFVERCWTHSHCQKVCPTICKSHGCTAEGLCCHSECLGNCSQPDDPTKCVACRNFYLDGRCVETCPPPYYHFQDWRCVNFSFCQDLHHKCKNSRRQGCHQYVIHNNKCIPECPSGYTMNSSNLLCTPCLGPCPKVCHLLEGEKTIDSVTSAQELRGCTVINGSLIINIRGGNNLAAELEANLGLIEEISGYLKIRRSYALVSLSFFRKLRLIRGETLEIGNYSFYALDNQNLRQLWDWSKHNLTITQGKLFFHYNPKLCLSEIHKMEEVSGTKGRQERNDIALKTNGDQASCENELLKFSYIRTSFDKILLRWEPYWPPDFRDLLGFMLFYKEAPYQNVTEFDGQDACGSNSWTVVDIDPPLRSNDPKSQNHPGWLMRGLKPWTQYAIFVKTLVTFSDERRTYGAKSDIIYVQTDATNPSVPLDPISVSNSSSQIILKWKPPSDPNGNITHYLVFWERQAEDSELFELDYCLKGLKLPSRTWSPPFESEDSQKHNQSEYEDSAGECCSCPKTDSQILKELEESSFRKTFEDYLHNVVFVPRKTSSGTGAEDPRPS
Insulin receptor (Homo sapiens), sequence (P06213 763-1382 limits assumed): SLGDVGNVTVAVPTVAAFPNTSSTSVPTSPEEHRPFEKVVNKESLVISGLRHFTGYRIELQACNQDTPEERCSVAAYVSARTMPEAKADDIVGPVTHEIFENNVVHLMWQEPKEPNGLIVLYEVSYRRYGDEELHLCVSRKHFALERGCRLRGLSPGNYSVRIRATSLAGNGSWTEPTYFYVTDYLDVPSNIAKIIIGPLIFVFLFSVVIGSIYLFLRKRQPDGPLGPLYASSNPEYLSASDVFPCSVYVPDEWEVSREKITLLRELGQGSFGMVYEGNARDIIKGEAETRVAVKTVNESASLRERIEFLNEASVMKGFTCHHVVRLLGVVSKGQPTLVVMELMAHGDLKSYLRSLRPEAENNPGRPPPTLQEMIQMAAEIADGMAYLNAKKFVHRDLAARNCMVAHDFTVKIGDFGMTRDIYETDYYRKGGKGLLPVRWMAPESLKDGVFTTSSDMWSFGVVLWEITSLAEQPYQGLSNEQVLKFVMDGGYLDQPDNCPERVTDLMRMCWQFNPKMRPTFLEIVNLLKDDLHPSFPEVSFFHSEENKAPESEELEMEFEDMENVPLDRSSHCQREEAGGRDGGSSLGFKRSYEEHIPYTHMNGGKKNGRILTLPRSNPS
Histamine H1 receptor (Homo sapiens), sequence (P35367 whole entry): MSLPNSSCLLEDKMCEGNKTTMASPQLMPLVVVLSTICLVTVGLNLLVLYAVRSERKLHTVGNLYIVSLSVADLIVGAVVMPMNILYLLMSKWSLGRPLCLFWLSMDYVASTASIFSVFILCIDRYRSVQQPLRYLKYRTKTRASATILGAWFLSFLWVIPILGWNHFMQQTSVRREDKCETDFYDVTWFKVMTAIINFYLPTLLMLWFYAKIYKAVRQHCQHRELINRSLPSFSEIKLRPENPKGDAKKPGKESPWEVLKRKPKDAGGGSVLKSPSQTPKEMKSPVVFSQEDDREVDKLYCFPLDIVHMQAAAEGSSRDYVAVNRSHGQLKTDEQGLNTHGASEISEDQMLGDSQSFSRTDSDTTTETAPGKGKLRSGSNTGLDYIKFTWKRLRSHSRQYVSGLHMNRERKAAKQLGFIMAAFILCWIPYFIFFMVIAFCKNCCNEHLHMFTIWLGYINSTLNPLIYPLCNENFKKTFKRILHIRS
Transient receptor potential cation channel subfamily A member 1 (Homo sapiens), sequence (O75762 whole entry): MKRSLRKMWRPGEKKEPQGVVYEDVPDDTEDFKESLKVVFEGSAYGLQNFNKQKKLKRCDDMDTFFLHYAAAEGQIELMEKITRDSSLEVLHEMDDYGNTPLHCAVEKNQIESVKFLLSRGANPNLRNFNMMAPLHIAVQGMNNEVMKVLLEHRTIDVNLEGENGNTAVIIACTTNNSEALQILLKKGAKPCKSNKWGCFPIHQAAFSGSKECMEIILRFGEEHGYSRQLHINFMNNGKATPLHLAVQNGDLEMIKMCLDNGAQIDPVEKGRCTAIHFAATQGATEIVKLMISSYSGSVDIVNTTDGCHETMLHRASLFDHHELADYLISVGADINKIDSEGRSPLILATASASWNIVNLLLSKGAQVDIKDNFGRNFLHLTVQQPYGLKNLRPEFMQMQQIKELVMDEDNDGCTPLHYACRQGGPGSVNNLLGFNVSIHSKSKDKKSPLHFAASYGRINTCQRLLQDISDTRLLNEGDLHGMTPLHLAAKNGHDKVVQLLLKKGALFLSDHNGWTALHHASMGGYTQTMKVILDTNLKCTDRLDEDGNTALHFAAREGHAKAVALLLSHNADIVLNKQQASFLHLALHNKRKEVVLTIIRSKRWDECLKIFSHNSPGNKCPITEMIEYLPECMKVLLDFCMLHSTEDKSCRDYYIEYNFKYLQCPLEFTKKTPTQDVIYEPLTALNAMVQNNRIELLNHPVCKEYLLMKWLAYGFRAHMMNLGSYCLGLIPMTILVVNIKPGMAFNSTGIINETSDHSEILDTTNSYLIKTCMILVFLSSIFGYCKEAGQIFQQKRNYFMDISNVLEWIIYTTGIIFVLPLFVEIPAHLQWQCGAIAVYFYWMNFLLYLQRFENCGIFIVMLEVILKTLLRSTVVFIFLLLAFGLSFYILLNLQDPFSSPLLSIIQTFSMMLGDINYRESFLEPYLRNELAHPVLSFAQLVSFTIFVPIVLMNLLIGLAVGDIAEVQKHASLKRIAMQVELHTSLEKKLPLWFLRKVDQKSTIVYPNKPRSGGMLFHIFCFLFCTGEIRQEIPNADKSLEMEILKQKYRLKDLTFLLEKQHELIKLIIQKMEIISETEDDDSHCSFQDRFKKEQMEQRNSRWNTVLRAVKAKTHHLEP
Mu-type opioid receptor (Homo sapiens), sequence (P35372 whole entry): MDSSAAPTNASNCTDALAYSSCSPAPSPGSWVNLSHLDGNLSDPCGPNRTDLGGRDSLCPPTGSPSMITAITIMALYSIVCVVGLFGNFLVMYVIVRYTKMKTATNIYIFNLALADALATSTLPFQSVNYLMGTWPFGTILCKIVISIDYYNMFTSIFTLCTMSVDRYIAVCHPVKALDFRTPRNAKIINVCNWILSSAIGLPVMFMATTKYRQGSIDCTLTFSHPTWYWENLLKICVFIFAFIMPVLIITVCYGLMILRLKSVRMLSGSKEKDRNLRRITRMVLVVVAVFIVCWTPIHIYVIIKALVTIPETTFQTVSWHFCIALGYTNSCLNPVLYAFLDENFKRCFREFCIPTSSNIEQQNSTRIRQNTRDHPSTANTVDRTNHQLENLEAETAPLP

For `O=C(NCc1ccc(OC(F)(F)F)cc1)C1c2ccccc2C(=O)N1C1CCOCC1` (single isomer, unassigned; enantiomer 2), the inhibition [1] was “inactive”, the clearance (in vivo [2]) was 30 mL/min/kg and the inhibition [3] was “inactive”. It also gave an inhibition (Rattus norvegicus [4]) of 79%, a Cmax (in vivo [5]) of 600 nM and an AUC (in vivo [6]) of 1.7 µM·h. For the same compound, the half-life (in vivo [7]) was 1 h, the inhibition [8] was “inactive” and the inhibition [9] was “inactive”. The inhibition [10] was “inactive”, the inhibition [11] was “inactive” and the AUC (in vivo [12]) was 1.1 µM·h. For the same compound, the inhibition [13] was “inactive”, the inhibition [14] was “inactive” and the half-life (in vivo [15]) was 1.9 h. For the same compound, the inhibition in vivo at 100 µmol/kg (Rattus norvegicus [16]) was 65%, the inhibition in vivo at 30 µmol/kg (Rattus norvegicus [17]) was 16% and the inhibition [18] was “inactive”. The inhibition in vivo at 140 µmol/kg (Rattus norvegicus [19]) was 30%, the inhibition in vivo at 100 µmol/kg (Rattus norvegicus [20]) was 54% and the inhibition [21] was “inactive”. For the same compound, the inhibition in vivo at 100 µmol/kg (Rattus norvegicus [22]) was 42%, the inhibition [23] was “inactive” and the inhibition [24] was “inactive”. The inhibition [25] was “inactive”, the inhibition [26] was “inactive” and the microsomal CLint (in vitro [27]) was < 10 µL/min/mg. For the same compound, the IC50 (cells) was > 33 µM, the Tmax (in vivo [28]) was 0.3 h and the inhibition [29] was “inactive”. For the same compound, the inhibition [30] was “inactive”, the bioavailability (in vivo [31]) was 20% and the inhibition in vivo at 30 µmol/kg (Rattus norvegicus [32]) was 34%. For the same compound, the Kp (in vivo [33]) was 1, the inhibition [34] was “inactive” and the microsomal CLint (in vitro [35]) was 15 µL/min/mg. The inhibition [36] was “inactive”, the Vd (in vivo [37]) was 0.8 L/kg and the inhibition [38] was “inactive”. For the same compound, the fraction unbound (in vitro [39]) was 0.132.
For `O=C(NCc1ccc(OC(F)(F)F)cc1)C1c2ccccc2C(=O)N1CCc1ccccn1` (stereo in doubt; 16A), the inhibition [1] was “inactive”, the inhibition [3] was “inactive” and the inhibition (Rattus norvegicus [4]) was 100%. The Cmax (in vivo [5]) was 600 nM, the AUC (in vivo [6]) was 1.7 µM·h and the inhibition [8] was “inactive”. The inhibition [10] was “inactive”, the inhibition [11] was “inactive” and the AUC (in vivo [12]) was 2.1 µM·h. For the same compound, the inhibition [13] was “inactive”, the inhibition [14] was “inactive” and the half-life (in vivo [15]) was 5.9 h. For the same compound, the inhibition in vivo at 100 µmol/kg (Rattus norvegicus [16]) was 44%, the inhibition in vivo at 30 µmol/kg (Rattus norvegicus [17]) was 26% and the inhibition [18] was “inactive”. The inhibition in vivo at 140 µmol/kg (Rattus norvegicus [19]) was 84%, the inhibition in vivo at 100 µmol/kg (Rattus norvegicus [20]) was 56% and the inhibition [21] was “inactive”. For the same compound, the inhibition in vivo at 100 µmol/kg (Rattus norvegicus [22]) was 42%, the inhibition [24] was “inactive” and the inhibition [25] was “inactive”. The inhibition [26] was “inactive”, the IC50 (cells) was 10 µM and the Tmax (in vivo [28]) was 0.5 h. The inhibition [29] was “inactive”, the inhibition [30] was 44% and the bioavailability (in vivo [31]) was 37%. The inhibition in vivo at 30 µmol/kg (Rattus norvegicus [40]) was 35%, the inhibition in vivo at 30 µmol/kg (Rattus norvegicus [32]) was 25% and the inhibition in vivo at 140 µmol/kg (Rattus norvegicus [41]) was 53%. For the same compound, the Kp (in vivo [33]) was 2, the inhibition [34] was “inactive” and the inhibition [36] was “inactive”. For the same compound, the inhibition [38] was “inactive” and the fraction unbound (in vitro [39]) was 0.045.
